Test results: US20070173462A1, “Treatment of diseases associated with the use of antibiotics” (Optimer Pharmaceuticals, Inc., priority 2004, published 2007)
Values after ≈ are worked out from the molar mass of the structure shown. Like-named read-outs stand apart in the source and are kept apart here.

Legend:
[1] = tested on: C. paraputrificum; experiment: microbe, parasite or virus in culture; format: cell-based; conditions: clinical isolates, n=10
[2] = tested on: C. glycolicum; experiment: microbe, parasite or virus in culture; format: cell-based; conditions: clinical isolates, n=9
[3] = tested on: Clostridium difficile; experiment: MIC, 207 clinical isolates of C. difficile; format: cell-based
Description: (§1) Compound I was additionally tested against anaerobic clinical isolates and against aerobic bacteria. […] The compound was also active against clinical strains of Staphylococcus sp. and Enterococcus sp.

[4] = tested on: Streptococcus sp.; experiment: microbe, parasite or virus in culture; format: cell-based; conditions: clinical gastrointestinal isolates, n=9
[5] = tested on: Non-spore forming Gram positive rods; experiment: organism not typed; format: cell-based; conditions: clinical gastrointestinal isolates, n=64
[6] = tested on: toxigenic C. difficile; experiment: Hamster model of clindamycin-induced Clostridium difficile associated diarrhea/colitis; format: in vivo, Syrian hamsters
Experimental: Animals were treated with two oral doses of clindamycin at 100 mg/kg. Three days after the second dose of clindamycin, they were inoculated with toxigenic C. difficile spores. […] Animals were observed daily for the presence or absence of diarrhea. Necropsies were performed on some animals that died during the experiment, and cecal contents were assayed for C. difficile toxin A. Hamsters were monitored for 20 days, and the cumulative mortality during this period was recorded (FIG. 1).

[7] = tested on: Pseudomonas sp.; experiment: MIC, clinical isolates (Table 3); format: cell-based; conditions: n=15
Description: as §1

[8] = tested on: Eubacterium sp.; experiment: MIC, clinical isolates (Table 3); format: cell-based; conditions: n=26
Description: as §1

[9] = tested on: Streptococcus sp.; experiment: MIC, clinical isolates (Table 3); format: cell-based; conditions: n=10
Description: as §1

[10] = tested on: Lactobacillus sp.; experiment: MIC, clinical isolates (Table 3); format: cell-based; conditions: n=8, in µg/mL
Description: as §1

[11] = tested on: Prevotella sp.; experiment: MIC, clinical isolates (Table 3); format: cell-based; conditions: n=35
Description: as §1

[12] = tested on: Bacteroides fragilis; experiment: MIC, clinical isolates (Table 3); format: cell-based; conditions: n=69
Description: as §1

[13] = tested on: Eschericia coli; experiment: organism not typed; format: cell-based; conditions: clinical gastrointestinal isolates, n=10
[14] = tested on: Enterobacter sp.; experiment: microbe, parasite or virus in culture; format: cell-based; conditions: clinical gastrointestinal isolates, n=20
[15] = tested on: Other anaerobic Gram negative rods; experiment: organism not typed; format: cell-based; conditions: clinical gastrointestinal isolates, n=51
[16] = tested on: Anaerobic Gram positive cocci; experiment: organism not typed; format: cell-based; conditions: clinical gastrointestinal isolates, n=49
[17] = tested on: C. perfringens; experiment: microbe, parasite or virus in culture; format: cell-based
[18] = tested on: Proteus mirabilis; experiment: microbe, parasite or virus in culture; format: cell-based; conditions: clinical gastrointestinal isolates, n=10
[19] = tested on: Staphylococcus sp. (incl. MRSA); experiment: MIC, ATCC laboratory strains (NCCLS guidelines); format: cell-based
Experimental: (§2) The activity of Compound I was tested against laboratory strains of different species of bacteria using NCCLS antimicrobial susceptibility testing guidelines. […] Including MRSA and Enterococcus sp. Including VRE (Table. 2).

[20] = tested on: Enterococcus sp. (incl. VRE); experiment: MIC, ATCC laboratory strains (NCCLS guidelines); format: cell-based
Experimental: as §2

[21] = tested on: Clostridium sp.; experiment: MIC, ATCC laboratory strains (NCCLS guidelines); format: cell-based
Experimental: as §2

[22] = tested on: Bacteroides sp.; experiment: MIC, ATCC laboratory strains (NCCLS guidelines); format: cell-based; conditions: n=5
Experimental: as §2

[23] = tested on: Anaerobic Gram positive cocci; experiment: MIC, ATCC laboratory strains (NCCLS guidelines); format: cell-based; conditions: n=4
Experimental: as §2

[24] = tested on: Streptococcus sp.; experiment: MIC, ATCC laboratory strains (NCCLS guidelines); format: cell-based; conditions: n=5, in µg/mL
Experimental: as §2

[25] = tested on: Helicobacter sp.; experiment: MIC, ATCC laboratory strains (NCCLS guidelines); format: cell-based; conditions: n=1
Experimental: as §2

[26] = tested on: Fusobacterium sp.; experiment: MIC, ATCC laboratory strains (NCCLS guidelines); format: cell-based; conditions: n=1
Experimental: as §2

[27] = tested on: Enterobacteriaceae.; experiment: MIC, ATCC laboratory strains (NCCLS guidelines); format: cell-based; conditions: n=10
Experimental: as §2

[28] = tested on: Citrobacter sp.; experiment: MIC, ATCC laboratory strains (NCCLS guidelines); format: cell-based; conditions: n=2
Experimental: as §2

[29] = tested on: Neisseria sp.; experiment: MIC, ATCC laboratory strains (NCCLS guidelines); format: cell-based; conditions: n=3, in µg/mL
Experimental: as §2

[30] = tested on: Micrococcus sp.; experiment: MIC, ATCC laboratory strains (NCCLS guidelines); format: cell-based
Experimental: as §2

[31] = tested on: Moraxella sp.; experiment: MIC, ATCC laboratory strains (NCCLS guidelines); format: cell-based; conditions: n=2, in µg/mL
Experimental: as §2

[32] = tested on: Bacillus sp.; experiment: MIC, ATCC laboratory strains (NCCLS guidelines); format: cell-based; conditions: n=2
Experimental: as §2

[33] = tested on: Enterococcus sp.; experiment: microbe, parasite or virus in culture; format: cell-based; conditions: clinical gastrointestinal isolates, n=22

With CCc1c(Cl)c(O)c(Cl)c(O)c1C(=O)O[C@H]1[C@H](O)[C@H](OC)[C@H](OC/C2=C\C=C\C[C@H](O)/C(C)=C/[C@H](CC)C(O[C@@H]3OC(C)(C)[C@@H](OC(=O)C(C)C)[C@H](O)[C@@H]3O)/C(C)=C/C(C)=C/C[C@@H](C(C)O)OC2=O)O[C@@H]1C (stereo partly drawn) [Compound I] the MIC50 ([1]; Clostridium paraputrificum) was 8 µg/mL (≈ 7.56 µM), the MIC90 ([1]; Clostridium paraputrificum) was 32 µg/mL (≈ 30.2 µM) and the “Range (MIC)” value [1] was 0.062-64 ^ μg/mL. For the same molecule, the MIC50 ([2]; Terrisporobacter glycolicus) was 0.062 µg/mL (≈ 0.0586 µM), the MIC90 ([2]; Terrisporobacter glycolicus) was 1 µg/mL (≈ 0.945 µM) and the “Range (MIC)” value [2] was 0.062 to 1 µg/mL. The MIC90 ([3]; Clostridioides difficile, clinical isolates, n=207) was 0.008 µg/mL (≈ 0.00756 µM), the MIC50 ([3]; Clostridioides difficile, clinical isolates, n=207, read-out: MIC50) was 0.0019 µg/mL (≈ 0.0018 µM) and the MIC50 ([3]; clinical isolates, n=207) was 0.002 µg/mL (≈ 0.00189 µM). The “sensitivity of isolates (in words)” value ([3]; panel of 207 C. difficile clinical isolates) was “very sensitive”, the MIC50 ([4]; Streptococcus) was 32 µg/mL (≈ 30.2 µM) and the MIC90 ([4]; Streptococcus) was 128 µg/mL (≈ 121 µM). The “Range (MIC)” value [4] was 16 to 128 µg/mL, the MIC50 [5] was 1 µg/mL (≈ 0.945 µM) and the MIC90 [5] was 32 µg/mL (≈ 30.2 µM). For the same molecule, the ED50 ([6]; Clostridioides difficile, oral, 7 days, started 8 hours after infection, hamsters monitored 20 days) was less than 0.3 mg/kg, the “protection from infection (cumulative mortality over 20 days)” value ([6]; oral treatment for 7 days, untreated infection uniformly fatal between days two and six) was “protected the animals from infection” and the MIC50 ([7]; Pseudomonas) was greater than 64 µg/mL. It also gave a Range (MIC) [7] greater than 64 µg/mL, an MIC50 [8] of 32 µg/mL (≈ 30.2 µM) and an MIC50 [9] of 16 µg/mL (≈ 15.1 µM). The “Range (MIC)” value [10] was 8-32, the MIC50 [11] was no less than 128 µg/mL and the MIC50 ([12]; Bacteroides fragilis) was no less than 128 µg/mL. For the same molecule, the “Range (MIC)” value [12] was “≧128^”, the MIC50 [13] was greater than 256 µg/mL and the MIC90 [13] was greater than 256 µg/mL. The “Range (MIC)” value [13] was greater than 256 µg/mL, the MIC50 ([14]; Enterobacter) was greater than 256 µg/mL and the MIC90 ([14]; Enterobacter) was greater than 256 µg/mL. The “Range (MIC)” value [14] was greater than 256 µg/mL, the MIC50 [15] was 1020 µg/mL (≈ 968 µM) and the MIC90 [15] was greater than 1020 µg/mL. For the same molecule, the MIC50 [16] was 0.5 µg/mL (≈ 0.473 µM), the MIC90 [16] was 2 µg/mL (≈ 1.89 µM) and the “Range (MIC)” value [16] was 0.06 to 1024 µg/mL. The MIC50 ([17]; Clostridium perfringens) was 0.062 µg/mL (≈ 0.0586 µM), the MIC90 ([17]; Clostridium perfringens) was 0.062 µg/mL (≈ 0.0586 µM) and the “Range (MIC)” value ([17]; clinical isolates, n=14) was 0.062 µg/mL. The MIC50 ([18]; Proteus mirabilis) was greater than 256 µg/mL, the MIC90 ([18]; Proteus mirabilis) was greater than 256 µg/mL and the “Range (MIC)” value [18] was greater than 256 µg/mL. The “Range (MIC)” value ([19]; ATCC laboratory strains, n=6, in µg/mL) was 1-16, the “activity (in words)” value ([19]; laboratory strains, including MRSA) was “moderate activity” and the Range (MIC) ([20]; ATCC laboratory strains, n=4) was 4 µg/mL. For the same molecule, the “activity (in words)” value ([20]; laboratory strains, including VRE) was “moderate activity”, the “Range (MIC)” value ([21]; ATCC laboratory strains, n=4) was “≦0.015-0.0625” and the “activity (in words)” value ([21]; laboratory strains) was “excellent activity”. The Range (MIC) [22] was greater than 32 µg/mL, the “Range (MIC)” value [23] was “≦0.06-1” and the “Range (MIC)” value [24] was 16-32. For the same molecule, the Range (MIC) [25] was greater than 32 µg/mL, the Range (MIC) [26] was greater than 32 µg/mL and the Range (MIC) [27] was greater than 32 µg/mL. The Range (MIC) [28] was greater than 64 µg/mL, the “Range (MIC)” value [29] was 8-64 and the “Range (MIC)” value ([30]; ATCC laboratory strains, n=4) was “≦0.125”. For the same molecule, the “activity (in words)” value ([30]; laboratory strains) was “excellent activity”, the “Range (MIC)” value [31] was 1-2 and the Range (MIC) [32] was 1 µg/mL. For the same molecule, the MIC50 ([33]; Enterococcus) was 8 µg/mL (≈ 7.56 µM), the MIC90 ([33]; Enterococcus) was 8 µg/mL (≈ 7.56 µM) and the “Range (MIC)” value [33] was 0.5-16^ μg/mL.
